Laboratory results reported in patent publication US12060400B2, “Peptides for use in immunotherapy against cancers” (Immatics Biotechnologies GmbH, priority 2018, dated 2024).

System: HLA-A*24
Experiment: MHC binding assay: UV-ligand exchange with beta2m ELISA (peptide exchange yield)
Design: species or system human
Conditions: Table 11, binding to HLA-A*24, UV-ligand exchange
In short: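 Peptide-MHC complexes generated by UV-induced exchange of a photocleavable ligand with the test peptide; exchange yield quantified by streptavidin-capture ELISA detecting β2m (HRP anti-β2m, TMB, A450). Samples diluted 100-fold, with refolded HLA-A*02:01/MLA-001 monomers (15-500 ng/ml) as standards.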

Row | Peptide exchange (MHC class I binding score, peptide exchange yield) | Substance
1 | ++++ (>75% = ++++) | 17 (IYPEAIATL; listed as Homo sapiens) [compound 17]
2 | +++ (>50 = +++) | 61 (RIFTARLYF; listed as Homo sapiens) [compound 61]
3 | ++++ (>75% = ++++) | 346 (TYIDFVPYI; listed as Homo sapiens) [compound 346]
4 | ++ (>20% = ++) | 119 (VWSCEGCKAF; listed as Homo sapiens) [compound 119]
5 | ++++ (>75% = ++++) | 375 (YYAADQWVF; listed as Homo sapiens) [compound 375]
6 | +++ (>50 = +++) | 190 (IYIIMQSCW; listed as Homo sapiens) [compound 190]
7 | ++ (>20% = ++) | 202 (VYDTMIEKFA; listed as Homo sapiens) [compound 202]
8 | ++ (>20% = ++) | 157 (SIYPHGVTF; listed as Homo sapiens) [compound 157]
9 | ++++ (>75% = ++++) | 129 (IYVSLAHVL; listed as Homo sapiens) [compound 129]
10 | ++++ (>75% = ++++) | 379 (KLPTEWNVL; listed as Homo sapiens) [compound 379]
11 | +++ (>50 = +++) | 179 (MYNMVPFF; listed as Homo sapiens) [compound 179]
12 | ++ (>20% = ++) | 94 (THSGGTNLF; listed as Homo sapiens) [compound 94]
13 | ++++ (>75% = ++++) | 327 (KWKPSPLLF; listed as Homo sapiens) [compound 327]
14 | +++ (>50 = +++) | 138 (MMVTVVALF; listed as Homo sapiens) [compound 138]
15 | +++ (>50 = +++) | 75 (VYEHNHVSL; listed as Homo sapiens) [compound 75]
16 | + (>10% = +) | 290 (VTPKMLISF; listed as Homo sapiens) [compound 290]
17 | +++ (>50 = +++) | 143 (KTKRWLWDF; listed as Homo sapiens) [compound 143]
18 | +++ (>50 = +++) | 152 (MHPGVLAAFLF; listed as Homo sapiens) [compound 152]
19 | ++++ (>75% = ++++) | 362 (NYMDTDNLMF; listed as Homo sapiens) [compound 362]
20 | ++++ (>75% = ++++) | 83 (VLQGEFFLF; listed as Homo sapiens) [compound 83]
21 | ++ (>20% = ++) | 90 (TDLVQFLLF; listed as Homo sapiens) [compound 90]
22 | +++ (>50 = +++) | 377 (SLWREVVTF; listed as Homo sapiens) [compound 377]
23 | ++++ (>75% = ++++) | 244 (TYIDTRTVFL; listed as Homo sapiens) [compound 244]

Row | Peptide exchange (MHC class I binding score, peptide exchange yield) | Substance
24 | ++ (>20% = ++) | 124 (EYNVFPRTL; listed as Homo sapiens) [compound 124]
25 | ++ (>20% = ++) | 160 (YIANLISCF; listed as Homo sapiens) [compound 160]
26 | ++++ (>75% = ++++) | 170 (IFIPATILL; listed as Homo sapiens) [compound 170]
27 | ++ (>20% = ++) | 92 (RALTETIMF; listed as Homo sapiens) [compound 92]
28 | ++++ (>75% = ++++) | 50 (RYFDENIQKF; listed as Homo sapiens) [compound 50]
29 | ++ (>20% = ++) | 291 (YTRLVLQF; listed as Homo sapiens) [compound 291]
30 | +++ (>50 = +++) | 316 (IWAERIMF; listed as Homo sapiens) [compound 316]
31 | + (>10% = +) | 156 (IYPHGVTFSP; listed as Homo sapiens) [compound 156]
32 | ++++ (>75% = ++++) | 171 (LYTVPFNLI; listed as Homo sapiens) [compound 171]
33 | ++++ (>75% = ++++) | 71 (RYLPNPSLNAF; listed as Homo sapiens) [compound 71]
34 | + (>10% = +) | 116 (TYFFVANKY; listed as Homo sapiens) [compound 116]
35 | + (>10% = +) | 340 (FPPTPPLF; listed as Homo sapiens) [compound 340]
36 | ++++ (>75% = ++++) | 72 (RWLDGSPVTL; listed as Homo sapiens) [compound 72]
37 | ++ (>20% = ++) | 109 (AQHSLTQLF; listed as Homo sapiens) [compound 109]
38 | ++++ (>75% = ++++) | 153 (AWSPPATLF; listed as Homo sapiens) [compound 153]
39 | ++ (>20% = ++) | 334 (KVFGSFLTL; listed as Homo sapiens) [compound 334]
40 | ++++ (>75% = ++++) | 155 (PYSIYPHGVTF; listed as Homo sapiens) [compound 155]
41 | ++++ (>75% = ++++) | 163 (YYIGIVEEYW; listed as Homo sapiens) [compound 163]
42 | ++ (>20% = ++) | 229 (CAMPVAMEF; listed as Homo sapiens) [compound 229]
43 | +++ (>50 = +++) | 162 (YYIGIVEEY; listed as Homo sapiens) [compound 162]
44 | + (>10% = +) | 319 (ATATLHLIF; listed as Homo sapiens) [compound 319]
45 | ++ (>20% = ++) | 149 (TQFFIPYTI; listed as Homo sapiens) [compound 149]
46 | ++++ (>75% = ++++) | 368 (AYFVAMHLF; listed as Homo sapiens) [compound 368]

Row | Peptide exchange (MHC class I binding score, peptide exchange yield) | Substance
47 | ++++ (>75% = ++++) | 89 (TYVPSTFLVVL; listed as Homo sapiens) [compound 89]
48 | ++++ (>75% = ++++) | 311 (IQNAILHLF; listed as Homo sapiens) [compound 311]
49 | ++++ (>75% = ++++) | 235 (VYISDVSVY; listed as Homo sapiens) [compound 235]
50 | ++++ (>75% = ++++) | 2 (LYAPTILLW; listed as Homo sapiens) [compound 2]
51 | +++ (>50 = +++) | 209 (DIYVTGGHLF; listed as Homo sapiens) [compound 209]
52 | ++++ (>75% = ++++) | 323 (NYSPVTGKF; listed as Homo sapiens) [compound 323]
53 | ++ (>20% = ++) | 187 (KWFNVRMGFGF; listed as Homo sapiens) [compound 187]
54 | ++++ (>75% = ++++) | 376 (KYVGEVFNI; listed as Homo sapiens) [compound 376]
55 | ++++ (>75% = ++++) | 226 (TYSTNRTMI; listed as Homo sapiens) [compound 226]
56 | +++ (>50 = +++) | 53 (LFQRVSSVSF; listed as Homo sapiens) [compound 53]
57 | + (>10% = +) | 240 (RVHANPLLI; listed as Homo sapiens) [compound 240]
58 | ++++ (>75% = ++++) | 332 (VYCSLDKSQF; listed as Homo sapiens) [compound 332]
59 | ++ (>20% = ++) | 238 (YTCSRAVSLF; listed as Homo sapiens) [compound 238]
60 | ++++ (>75% = ++++) | 9 (TYINSLAIL; listed as Homo sapiens) [compound 9]
61 | ++++ (>75% = ++++) | 367 (HWSHITHLF; listed as Homo sapiens) [compound 367]
62 | ++++ (>75% = ++++) | 239 (IYTFSNVTF; listed as Homo sapiens) [compound 239]
63 | ++ (>20% = ++) | 131 (MHRTWRETF; listed as Homo sapiens) [compound 131]
64 | ++++ (>75% = ++++) | 245 (VLPLHFLPF; listed as Homo sapiens) [compound 245]
65 | ++ (>20% = ++) | 154 (DYSKQALSL; listed as Homo sapiens) [compound 154]
66 | ++ (>20% = ++) | 15 (FMVIAGMPLF; listed as Homo sapiens) [compound 15]
67 | +++ (>50 = +++) | 272 (IYFNHRCF; listed as Homo sapiens) [compound 272]
68 | +++ (>50 = +++) | 93 (TDWSPPPVEF; listed as Homo sapiens) [compound 93]
69 | ++++ (>75% = ++++) | 178 (AYPQIRCTW; listed as Homo sapiens) [compound 178]
